Consider 14 compounds from patent US20230295118A1 (EnhancedBio Inc., priority 2022, published 2023).

Common to all, as to format: cell-based
One test concerns the target T1, CDK6 (Homo sapiens, UniProt Q00534).
T1 construct: endogenous in cells
In words: CDK6 degradation (DC50, Dmax).

The next test has as its target T2, CDK4 (Homo sapiens, UniProt P11802).
T2 construct: endogenous in cells
In words: CDK4 degradation (DC50, Dmax).

Test [1] deals with mantle cell lymphoma cell (Mino or JeKo-1). In words: Antiproliferative effect, MTS cell viability assay. The gist of the method: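 Mino cells treated with compounds at 0, 0.0001, 0.001, 0.01, 0.1, 1 μM for 72 h; palbociclib and abemaciclib as positive controls. Viability by MTS, formazan absorbance read at 490 nm.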
The mark [2] stands for this setting: 72 h, mantle cell lymphoma cell (Mino or JeKo-1), MTS assay, read-out: IC50 (anti-proliferation).

The structures appear in SMILES notation. Where two headings read alike, the source gives them in different places.

T1 sequence (Q00534 whole entry): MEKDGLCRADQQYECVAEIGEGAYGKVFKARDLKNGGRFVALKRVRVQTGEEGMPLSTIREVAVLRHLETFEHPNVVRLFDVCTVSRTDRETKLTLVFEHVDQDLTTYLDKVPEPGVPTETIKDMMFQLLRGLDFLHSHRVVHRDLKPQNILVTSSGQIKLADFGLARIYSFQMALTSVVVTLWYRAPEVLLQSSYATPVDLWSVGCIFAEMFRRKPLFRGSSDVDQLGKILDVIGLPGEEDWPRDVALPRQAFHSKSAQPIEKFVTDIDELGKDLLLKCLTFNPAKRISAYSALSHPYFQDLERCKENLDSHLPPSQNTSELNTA
T2 sequence (P11802 whole entry): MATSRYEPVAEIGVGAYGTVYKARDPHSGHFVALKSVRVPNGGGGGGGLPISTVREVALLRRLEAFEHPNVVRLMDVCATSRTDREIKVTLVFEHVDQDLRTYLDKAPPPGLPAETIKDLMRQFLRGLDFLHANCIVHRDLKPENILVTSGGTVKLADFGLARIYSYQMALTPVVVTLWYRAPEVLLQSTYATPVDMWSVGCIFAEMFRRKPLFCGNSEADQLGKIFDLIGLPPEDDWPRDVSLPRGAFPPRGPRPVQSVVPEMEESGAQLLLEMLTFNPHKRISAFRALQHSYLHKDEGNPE

By DC50 is commonly meant the concentration giving 50% degradation. Read a low DC50 as degradation at low concentration. By Dmax is commonly meant the largest share of the target that was removed. Lower therefore signals shallow degradation. In the case of `CC(=O)c1c(C)c2cnc(Nc3ccc(N4CCN(CCN5CCC(c6ccc7c(c6)CN(C6CCC(=O)NC6=O)C7=O)CC5)CC4)cn3)nc2n(C2CCCC2)c1=O` (stereo not shown) [Compound 72, 3-(5-(1-(2-(4-(6-((6-acetyl-8-cyclopentyl-5-methyl-7-oxo-7,8-dihydropyrido[2,3-d]pyrimidin-2-yl)amino)pyridin-3-yl)piperazin-1-yl)ethyl)piperidin-4-yl)-1-oxoisoindolin-2-yl)piperidine-2,6-dione], at CDK6, the DC50 was greater than 200 nM and the Dmax was greater than 50%. On CDK4, this compound registered a DC50 of 50 to 200 nM and a Dmax greater than 60%. For the same compound, the IC50 in test [1] (setting [2]) fell in the range of 50 to 200 nM.
Turning to `Cc1nc2c(F)cc(-c3nc(Nc4ccc(CC5CCN(C6CN(c7ccc8c(c7)C(=O)N(C7CCC(=O)NC7=O)C8=O)C6)CC5)cn4)ncc3F)cc2n1C(C)C` (stereo not shown) [Compound 148, 2-(2,6-dioxopiperidin-3-yl)-5-(3-(4-((6-((5-fluoro-4-(4-fluoro-1-isopropyl-2-methyl-1H-benzo[d]imidazol-6-yl)pyrimidin-2-yl)amino)pyridin-3-yl)methyl)piperidin-1-yl)azetidin-1-yl)isoindoline-1,3-dione], on CDK6, the DC50 lay in the range of 50 to 200 nM and the Dmax is greater than 60%. At CDK4, this compound had a DC50 of less than 50 nM and a Dmax greater than 60%. In test [1] (setting [2]), the IC50 is 50 to 200 nM.
At CDK6, `CC(=O)c1c(C)c2cnc(Nc3ccc(N4CCN(C(=O)N5CCN(CCN6CCC(c7ccc8c(c7)CN(C7CCC(=O)NC7=O)C8=O)CC6)CC5)CC4)cn3)nc2n(C2CCCC2)c1=O` (stereo not shown) [Compound 28, 3-(5-(1-(2-(4-(4-(6-((6-acetyl-8-cyclopentyl-5-methyl-7-oxo-7,8-dihydropyrido[2,3-d]pyrimidin-2-yl)amino)pyridin-3-yl)piperazine-1-carbonyl)piperazin-1-yl)ethyl)piperidin-4-yl)-1-oxoisoindolin-2-yl)piperidine-2,6-dione] displayed a DC50 greater than 200 nM and a Dmax greater than 60%. In addition, at CDK4, the DC50 was greater than 200 nM and the Dmax is greater than 60%. In test [1] (setting [2]), the IC50 fell in the range of 50 to 200 nM.
At CDK6, `CC(=O)c1c(C)c2cnc(Nc3ccc(N4CCN(C(=O)N5CCC(CCC6CCN(c7ccc8c(c7)CN(C7CCC(=O)NC7=O)C8=O)CC6)CC5)CC4)cn3)nc2n(C2CCCC2)c1=O` (stereo not shown) [Compound 26, 3-(5-(4-(2-(1-(4-(6-((6-acetyl-8-cyclopentyl-5-methyl-7-oxo-7,8-dihydropyrido[2,3-d]pyrimidin-2-yl)amino)pyridin-3-yl)piperazine-1-carbonyl)piperidin-4-yl)ethyl)piperidin-1-yl)-1-oxoisoindolin-2-yl)piperidine-2,6-dione] showed a DC50 greater than 200 nM and a Dmax greater than 50%. On CDK4, this compound registered a DC50 greater than 200 nM and a Dmax greater than 50%. In addition, the IC50 in test [1] (setting [2]) fell in the range of 50 to 200 nM.
As to `Cc1nc2c(F)cc(-c3nc(Nc4ccc(CN5CCN(C(=O)C6CN(c7ccc(C(=O)NC8CCC(=O)NC8=O)cc7)C6)CC5)cn4)ncc3F)cc2n1C(C)C` (stereo not shown) [Compound 137, N-(2,6-dioxopiperidin-3-yl)-4-(3-(4-((6-((5-fluoro-4-(4-fluoro-1-isopropyl-2-methyl-1H-benzo[d]imidazol-6-yl)pyrimidin-2-yl)amino)pyridin-3-yl)methyl)piperazine-1-carbonyl)azetidin-1-yl)benzamide], at CDK6, the DC50 lay within 50 to 200 nM and the Dmax is greater than 60%. In addition, on CDK4, the DC50 lay in the range of 50 to 200 nM and the maximal degradation (Dmax) was greater than 60%. In addition, the IC50 in test [1] (setting [2]) was 50 to 200 nM.
For the compound `CC(=O)c1c(C)c2cnc(Nc3ccc(N4CCN(C(=O)N5CCC(C6CCN(c7ccc8c(c7)CN(C7CCC(=O)NC7=O)C8=O)CC6)CC5)CC4)cn3)nc2n(C2CCCC2)c1=O` (stereo not shown) [Compound 10, 3-(5-(1′-(4-(6-((6-acetyl-8-cyclopentyl-5-methyl-7-oxo-7,8-dihydropyrido[2,3-d]pyrimidin-2-yl)amino)pyridin-3-yl)piperazine-1-carbonyl)-[4,4′-bipiperidin]-1-yl)-1-oxoisoindolin-2-yl)piperidine-2,6-dione], the DC50 on CDK6 and at CDK4 was greater than 200 nM each time. The Dmax on CDK6 and on CDK4 was greater than 50% each time. Moreover, the IC50 in test [1] (setting [2]) is greater than 200 nM.
Take `Cc1nc2c(F)cc(-c3nc(Nc4ccc(CN5CCN(CC6CCN(c7ccc(C(=O)NC8CCC(=O)NC8=O)cc7)CC6)CC5)cn4)ncc3F)cc2n1C(C)C` (stereo not shown) [Compound 151, N-(2,6-dioxopiperidin-3-yl)-4-(4-((4-((6-((5-fluoro-4-(4-fluoro-1-isopropyl-2-methyl-1H-benzo[d]imidazol-6-yl)pyrimidin-2-yl)amino)pyridin-3-yl)methyl)piperazin-1-yl)methyl)piperidin-1-yl)benzamide]: at CDK6, the DC50 is 50 to 200 nM and the Dmax is greater than 60%. In addition, on CDK4, the DC50 was 50 to 200 nM and the Dmax is greater than 80%. The IC50 in test [1] (setting [2]) is less than 50 nM.
On CDK6, `CC(=O)c1c(C)c2cnc(Nc3ccc(N4CCN(C(=O)N5CCC(CCN6CCN(c7ccc8c(c7)CN(C7CCC(=O)NC7=O)C8=O)CC6)CC5)CC4)cn3)nc2n(C2CCCC2)c1=O` (stereo not shown) [Compound 20, 3-(5-(4-(2-(1-(4-(6-((6-acetyl-8-cyclopentyl-5-methyl-7-oxo-7,8-dihydropyrido[2,3-d]pyrimidin-2-yl)amino)pyridin-3-yl)piperazine-1-carbonyl)piperidin-4-yl)ethyl)piperazin-1-yl)-1-oxoisoindolin-2-yl)piperidine-2,6-dione] yielded a DC50 of 50 to 200 nM and a Dmax greater than 60%. For the same compound, at CDK4, the DC50 was in the range of 50 to 200 nM and the Dmax is greater than 60%. The IC50 in test [1] (setting [2]) was 50 to 200 nM.
At CDK6, `CC(=O)c1c(C)c2cnc(Nc3ccc(N4CCN(C(=O)N5CCN(CCN6CCC(c7ccc8c(c7)C(=O)N(C7CCC(=O)NC7=O)C8=O)CC6)CC5)CC4)cn3)nc2n(C2CCCC2)c1=O` (stereo not shown) [Compound 27, 5-(1-(2-(4-(4-(6-((6-acetyl-8-cyclopentyl-5-methyl-7-oxo-7,8-dihydropyrido[2,3-d]pyrimidin-2-yl)amino)pyridin-3-yl)piperazine-1-carbonyl)piperazin-1-yl)ethyl)piperidin-4-yl)-2-(2,6-dioxopiperidin-3-yl)isoindoline-1,3-dione] yielded a DC50 greater than 200 nM and a Dmax greater than 60%. On CDK4, this compound registered a DC50 greater than 200 nM and a Dmax greater than 60%. Also, in test [1] (setting [2]), the IC50 lay within 50 to 200 nM.
At CDK6, `CC(=O)c1c(C)c2cnc(Nc3ccc(N4CCN(C(=O)N5CCC(CC6CCN(c7ccc8c(c7)CN(C7CCC(=O)NC7=O)C8=O)CC6)CC5)CC4)cn3)nc2n(C2CCCC2)c1=O` (stereo not shown) [Compound 14, 3-(5-(4-((1-(4-(6-((6-acetyl-8-cyclopentyl-5-methyl-7-oxo-7,8-dihydropyrido[2,3-d]pyrimidin-2-yl)amino)pyridin-3-yl)piperazine-1-carbonyl)piperidin-4-yl)methyl)piperidin-1-yl)-1-oxoisoindolin-2-yl)piperidine-2,6-dione] gave a DC50 greater than 200 nM and a Dmax greater than 60%. Moreover, on CDK4, the DC50 was greater than 200 nM and the Dmax was greater than 50%. For the same compound, in test [1] (setting [2]), the IC50 was in the range of 50 to 200 nM.
On CDK6, `CC(=O)c1c(C)c2cnc(Nc3ccc(N4CCN(CCCNc5ccc(N6CCC(=O)NC6=O)cc5)CC4)cn3)nc2n(C2CCCC2)c1=O` [Compound 105, 1-(4-((3-(4-(6-((6-acetyl-8-cyclopentyl-5-methyl-7-oxo-7,8-dihydropyrido[2,3-d]pyrimidin-2-yl)amino)pyridin-3-yl)piperazin-1-yl)propyl)amino)phenyl)dihydro-pyrimidine-2,4 (1H,3H)-dione] had a DC50 of less than 50 nM and a Dmax greater than 80%. In addition, at CDK4, the DC50 was less than 50 nM and the Dmax was greater than 80%. Moreover, in test [1] (setting [2]), the IC50 was less than 50 nM.
On CDK6, `CC(=O)c1c(C)c2cnc(Nc3ccc(N4CCN(C(=O)N5CCC(N6CCC(c7ccc8c(c7)CN(C7CCC(=O)NC7=O)C8=O)CC6)CC5)CC4)cn3)nc2n(C2CCCC2)c1=O` (stereo not shown) [Compound 8, 3-(5-(1′-(4-(6-((6-acetyl-8-cyclopentyl-5-methyl-7-oxo-7,8-dihydropyrido[2,3-d]pyrimidin-2-yl)amino)pyridin-3-yl)piperazine-1-carbonyl)-[1,4′-bipiperidin]-4-yl)-1-oxoisoindolin-2-yl)piperidine-2,6-dione] showed a DC50 greater than 200 nM and a Dmax greater than 50%. Further, on CDK4, the DC50 is greater than 200 nM and the Dmax is greater than 60%. The IC50 in test [1] (setting [2]) was greater than 200 nM.
On to `Cc1nc2c(F)cc(-c3nc(Nc4ccc(CN5CCN(C6CCN(c7ccc(C(=O)NC8CCC(=O)NC8=O)cc7)CC6)CC5)cn4)ncc3F)cc2n1C(C)C` (stereo not shown) [Compound 167, N-(2,6-dioxopiperidin-3-yl)-4-(4-(4-((6-((5-fluoro-4-(4-fluoro-1-isopropyl-2-methyl-1H-benzo[d]imidazol-6-yl)pyrimidin-2-yl)amino)pyridin-3-yl)methyl)piperazin-1-yl)piperidin-1-yl)benzamide], for which, on CDK6, the DC50 was in the range of 50 to 200 nM and the “Dmax CDK6” value is given as “B (B: >60%)”. Besides, on CDK4, the DC50 was in the range of 50 to 200 nM and the “Dmax CDK4” value is “B (B: >60%)”. In addition, the IC50 in test [1] (mantle cell lymphoma cell (Mino or JeKo-1); MTS assay, 72 h; read-out: IC50 (anti-proliferation)) is 50 to 200 nM.
Regarding `Cc1nc2c(F)cc(-c3nc(Nc4ccc(CN5CCN(CCCNc6ccc7c(c6)CN(C6CCC(=O)NC6=O)C7=O)CC5)cn4)ncc3F)cc2n1C(C)C` (stereo not shown) [Compound 74, 3-(5-((3-(4-((6-((5-fluoro-4-(4-fluoro-1-isopropyl-2-methyl-1H-benzo[d]imidazol-6-yl)pyrimidin-2-yl)amino)pyridin-3-yl)methyl)piperazin-1-yl)propyl)amino)-1-oxoisoindolin-2-yl)piperidine-2,6-dione], the DC50 at CDK6 and on CDK4 was less than 50 nM throughout. Also, the Dmax on CDK6 and at CDK4 was greater than 80% throughout. For the same compound, the IC50 in test [1] (setting [2]) is less than 50 nM.
